The text below walks through data of US6753323B2, “Topical administration of amifostine and related compounds” (MedImmune Oncology, Inc., priority 1998, dated 2004).

For one series, the system named is hair matrix cells. The note with it: topical 0.3 mg in 0.2 mL Ringer's solution on depilated mouse skin before fractionated irradiation; cited from earlier work.
A further series relates to bacteria, yeast and mold. Put plainly: USP 23 Antimicrobial Preservatives-Effectiveness test, overall. In kind it is cell-based. The note with it: each of the tested microorganisms, 28 day test. The method, then: WR-1065 was evaluated according to a protocol based on the “Antimicrobial Preservatives-Effectiveness” Test, outlined in the United States Pharmaeopeia, 23rd ed. (1995).
Prior to inoculation of the test article, a 1:10 dilution is prepared in diluent and 1.0 mL is plated. Additional serial dilutions are prepared and plated as necessary. Two separate sets are prepared as above. One set is prepared for bacteria counts, and one set is prepared for yeast/mold counts.
Enumeration of viable bacterial and fungal populations in the inoculated test article is conducted at 7, 14, 21 and 28 days post inoculation. At each time interval, a 1.0 g (or mL) specimen is removed from each inoculated specimen and plate counts are obtained by preparing serial dilutions in 9 mL tubes of diluent and plating aliquots from each dilution. Following incubation, plates are observed and the CFU's are enumerated. The number obtained is multiplied by the dilution factor to give the number of viable organisms per g (or mL) of test article at each time interval. At each time interval, the inoculated product is examined and any changes observed in the appearance of the test article during the challenge period are recorded. […]

A short description of series [1]: Solubility of WR-1065 salts in various solvents. The note with it: Water. In kind it is physicochemical. The procedure:
As mentioned above, salts of amifostine and related compounds are included within the scope of the invention. […] Several salts of WR-1065 were prepared, and their solubility in various solvents was measured.

Molecules are shown by their SMILES.

As to `NCCCNCCS` [WR-1065, S-2-(3-aminopropylamino) ethanethiol], in the series with hair matrix cells, the “protection of hair matrix cells from radiation-induced injury” value was “some effectiveness”. The “preservative efficacy according to USP 23 criteria” value with bacteria, yeast and mold is reported as “effective preservative”.
On to `Cl.Cl.NCCCNCCS` [di-HCl], for which the “Est. Solubitity HPLC Assay” value in series [1] (as salt) is on record as 849 mg/mL; in series [1] (expressed as free base) it was 550 mg/mL.
